How the values were obtained:
Format in all cases: in vivo
[1] = test system: cattle tick larvae (Rhipicephalus microplus), strain Parkhurst, resistant against synthetic pyrethroids; experiment: Rhipicephalus (Boophilus) microplus in-vitro contact test, larval cattle tick; conditions: 5 μg/cm^2 (=500 g/ha), after 48 hours
Protocol: Rhipicephalus (Boophilus) Microplus—In-Vitro Contact Tests Larval Cattle Tick (Strain Parkhurst, Resistant Against Synthetic Pyrethroids)
(§1) 9 mg compound is solved in 1 mL acetone and diluted with acetone to the desired concentration. 250 μL of the test solution is filled in 25 mL glass test tubes and homogeneously distributed on the inner walls by rotation and tilting on a shaking device (2 h at 30 rpm). With a compound concentration of 900 ppm, an inner surface of 44.7 cm^2 and a homogeneous distribution, a dose of 5 μg/cm^2 is achieved.
After the solvent has evaporated, each test tube is filled with 20-50 cattle tick larvae (Rhipicephalus microplus), closed with a perforated lid and incubated in a horizontal position at 85% relative humidity and 27° C. in an incubator. After 48 hours efficacy is determined. The larvae are patted on the ground of the tubes and negative geotactic behavior is recorded.
An efficacy of 100% means all larvae are dead or moribund; 0% means no larvae are dead or moribund.

[2] = test system: adult brown dog ticks (Rhipicephalus sanguineus); experiment: Rhipicephalus sanguineus in-vitro contact test, adult brown dog ticks; conditions: 48 h, read-out: efficacy (ticks dead or moribund)
Protocol: Rhipicephalus sanguineus—In-Vitro Contact Tests with Adult Brown Dog Ticks
as §1
(§2) After the solvent has evaporated, each test tube is filled with 5-10 adult brown dog ticks (Rhipicephalus sanguineus), closed with a perforated lid and incubated in a lying position at room temperature and relative humidity. After 48 hours efficacy is determined. The ticks are patted on the ground of the tubes and are incubated on a heating plate at 45-50° C. for at most 5 minutes. Immotile or uncoordinated moving ticks, which are not able to escape the heat by climbing upwards, are marked as dead or moribund.
An efficacy of 100% means all ticks are dead or moribund; 0% means no ticks are dead or moribund.

[3] = test system: larvae of the banded cucumber beetle (Diabrotica balteata); experiment: Diabrotica balteata spray test; conditions: 168 h, 100 g/ha (=32 μg/well), after 7 days, read-out: efficacy (seedling growth)
In short: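 Efficacy is seedling survival after 7 days, where 0% means no seedlings grew and 100% means growth equal to untreated, uninfested controls. Wheat seedlings, germinated on agar for 1 day, were sprayed with the aqueous emulsifier dilution (acetone/DMF solvent) and then exposed to 10–20 banded cucumber beetle larvae.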

[4] = test system: fall armyworm larvae (Spodoptera frugiperda); experiment: whole plant or invertebrate; conditions: 168 h
In short: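 Percent kill of Spodoptera frugiperda caterpillars, read 7 days after infestation of dried, spray-treated Zea mays leaf pieces. Spray preparation: compound in acetone plus dimethylformamide, diluted with emulsifier-containing water.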

[5] = test system: green peach aphid (Myzus persicae); experiment: Myzus persicae spray test (MYZUPE); conditions: 120 h, 100 g/ha, after 5 days
Protocol: Myzus persicae—Spray Test
• Solvent: 78.0 parts by weight acetone • 1.5 parts by weight dimethylformamide • Emulsifier: alkylarylpoly glycol ether
(§3) To produce a suitable preparation of active compound, 1 part by weight of active compound is mixed with the stated amount of solvents and is diluted with water, containing an emulsifier concentration of 1000 ppm, to the desired concentration. Further test concentrations are prepared by dilution with emulsifier containing water.
Chinese cabbage (Brassica pekinensis) leaf disks infected with all instars of the green peach aphid (Myzus persicae), are sprayed with a preparation of the active ingredient of the desired concentration.
After 5 days mortality in % is determined. 100% means all aphids have been killed and 0% means none of the aphids have been killed.
Myzus persicae—Spray Test (MYZUPE)
• Solvent: 78.0 parts by weight acetone • 1.5 parts by weight dimethylformamide • Emulsifier: alkylarylpolyglycol ether
After the specified period of time, mortality in % is determined. 100% means all aphids have been killed and 0% means none of the aphids have been killed.

[6] = test system: adult mosquitoes Aedes aegypti strain MONHEIM; experiment: Aedes aegypti test (AEDSAE surface treatment & contact assay); conditions: 24 hours after contact, read-out: efficacy (mortality); for mortality at 20 mg/m2: surface concentration 20 mg/m^2, 30 min exposure; for mortality at 4 mg/m2: surface concentration 4 mg/m^2, 30 min exposure
Protocol: Aedes aegypti Test (AEDSAE Surface Treatment & Contact Assay)
Solvent: Aceton+2000 ppm rapeseed oil methyl ester (RME)
This solution is pipetted onto a glazed tile and after evaporation of the acetone, adult mosquitoes of the species Aedes aegypti strain MONHEIM are placed onto the dried surface. The exposure time is 30 minutes. Mortality in percent (%) is determined 24 hours after contact of the insects to the treated surface. 100% mortality means that all tested insects are dead, whereas 0% means that no insect died.

[7] = test system: larvae of the southern green stink bug (Nezara viridula); experiment: whole plant or invertebrate; conditions: 96 h
In short: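 Percent mortality of southern green stink bug larvae was recorded at day 4, with 100% meaning all dead. The larvae were placed on barley sprayed with the test solution. That solution was prepared from acetone/dimethylformamide concentrate diluted in emulsifier-containing water (1000 ppm).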

[8] = test system: adult cat fleas (Ctenocephalides felis); experiment: Ctenocephalides felis in-vitro contact test, adult cat flea; conditions: 5 μg/cm^2 (=500 g/ha), after 48 hours
Protocol: Ctenocephalides felis—In-Vitro Contact Tests Adult Cat Flea
as §1
as §2, with “cat fleas (Ctenocephalides felis),” for “brown dog ticks (Rhipicephalus sanguineus),”, “fleas” for “ticks”, “fleas,” for “ticks,”
An efficacy of 100% means all fleas are dead or moribund; 0% means no fleas are dead or moribund.

[9] = test system: brown planthopper (Nilaparvata lugens); experiment: Nilaparvata lugens spray test; conditions: 96 h
Protocol: Nilaparvata lugens—Spray Test
• Solvent: 78.0 parts by weight of acetone • 1.5 parts by weight of dimethylformamide • Emulsifier: alkylarylpolyglycol ether
as §3
Rice plants (Oryza sativa) are sprayed with a preparation of the active ingredient of the desired concentration and the plants are infested with the brown planthopper (Nilaparvata lugens).
After 4 days mortality in % is determined. 100% means all planthoppers have been killed and 0% means none of the planthoppers have been killed.

| Structure (SMILES) | efficacy (larvae dead or moribund) [1] | pest or weed control at 5 µg/cm2, 500 g/ha [2] | pest or weed control at 32 µg/disc, 100 g/ha [3] | mortality at 100 g/ha [4] | mortality at 100 g/ha [5] | mortality at 20 mg/m2 [6] | mortality at 500 g/ha [7] | mortality at 4 mg/m2 [6] | efficacy (fleas dead or moribund) [8] | mortality at 100 g/ha [7] | mortality at 500 g/ha [9] |
| --- | --- | --- | --- | --- | --- | --- | --- | --- | --- | --- | --- |
| Cc1nc([C@H](C)NC(=O)c2cc(Cl)cc(SC(F)(F)F)c2)n(-c2cc(C#N)ncn2)n1 [I-6] | 100% | 100% | 100% | 100% | – | – | – | – | – | – | – |
| CC(C)N(C)C(=O)c1cc(-n2ncnc2[C@H](C)NC(=O)c2cc(Br)cc(Br)c2)ncn1 [I-40] | – | – | 100% | 100% | 90% | 80 to 100% | – | – | – | – | – |
| Cc1nc([C@H](C)NC(=O)c2cc(Br)cc(OC(F)(F)F)c2)n(-c2cc(C#N)ncn2)n1 [I-28] | 100% | 100% | 100% | 100% | – | – | 90% | – | – | – | – |
| C[C@H](NC(=O)c1cc(C(F)(F)F)cc(S(C)(=O)=O)c1)c1ncnn1-c1cc(C#N)ncn1 [I-2] | 100% | – | 80% | – | – | 80 to 100% | – | 80 to 100% | – | – | – |
| C[C@H](NC(=O)c1cc(Cl)nc(C2(C#N)CC2)c1)c1ncnn1-c1cc(C#N)ncn1 [I-35, 2-chloro-6-(1-cyanocyclopropyl)-N-[(1S)-1-[2-(6-cyanopyrimidin-4-yl)-1,2,4-triazol-3-yl]ethyl]pyridine-4-carboxamide] | 100% | – | 100% | 100% | – | – | – | – | – | – | – |
| C[C@H](NC(=O)c1cc(OC(F)F)cc(C2CC2)c1)c1ncnn1-c1cc(C(N)=O)ncn1 [I-66] | 100% | – | 100% | 100% | 90% | – | 100% | – | 90% | – | – |
| CNC(=O)c1cc(-n2ncnc2[C@H](C)NC(=O)c2cc(Br)cc(Br)c2)ncn1 [I-46] | 100% | – | 100% | 100% | 90% | – | 100% | – | 100% | – | – |
| C[C@H](NC(=O)c1cc(OC(F)(F)F)cc(S(C)(=O)=O)c1)c1ncnn1-c1cc(C#N)ncn1 [I-19] | – | – | 100% | 100% | 100% | 80 to 100% | 100% | 80 to 100% | – | 90% | – |
| Cc1nc([C@H](C)NC(=O)c2cc(Cl)cc(C(F)(F)F)c2)n(-c2cc(C#N)ncn2)n1 [I-41] | – | – | 100% | 100% | 100% | – | 90% | 80 to 100% | – | – | – |
| C[C@H](NC(=O)c1cc(OC(F)(F)F)cc(OC(F)(F)F)c1)c1nc(C2CC2)nn1-c1cc(C#N)ncn1 [I-37] | 100% | – | 80% | – | – | – | – | – | – | – | – |
| Cc1nc([C@H](C)NC(=O)c2cc(OC(F)(F)F)cc(C3CC3)c2)n(-c2cc(C#N)ncn2)n1 [I-25] | – | – | 100% | 100% | – | 80 to 100% | 100% | 80 to 100% | – | – | – |
| C[C@H](NC(=O)c1cc(Cl)cc(S(=O)(=O)C(F)(F)F)c1)c1ncnn1-c1cc(C#N)ncn1 [I-7] | – | – | 100% | 100% | 100% | 80 to 100% | 100% | – | – | 90% | 90% |
| Cc1nc([C@H](C)NC(=O)c2cc(OC(F)F)cc(OC(F)F)c2)n(-c2cc(C#N)ncn2)n1 [I-22] | 100% | – | 100% | 100% | – | – | 100% | – | – | – | – |
| C[C@H](NC(=O)c1cc(OC(F)(F)F)cc(S(C)(=O)=O)c1)c1ncnn1-c1cc(C(N)=O)ncn1 [I-82] | – | – | 100% | 100% | 90% | – | 100% | – | – | – | 100% |
| C[C@H](NC(=O)c1cc(C#N)cc(OC(F)(F)F)c1)c1ncnn1-c1cc(C#N)ncn1 [I-38] | 100% | – | 100% | 100% | – | – | 100% | – | 90% | – | 100% |
| C[C@H](NC(=O)c1cc(Br)cc(Br)c1)c1ncnn1-c1cc(C#N)ncn1 [I-4] | 100% | 100% | 100% | 100% | – | 80 to 100% | – | – | – | – | – |
| CNC(=O)c1nccc(-n2ncnc2[C@H](C)NC(=O)c2cc(OC(F)(F)F)cc(OC(F)(F)F)c2)n1 [I-116] | – | – | 100% | 100% | 100% | – | 100% | – | – | 100% | 100% |
| CC(C)N(C)C(=O)c1cc(-n2ncnc2[C@H](C)NC(=O)c2cc(OC(F)F)cc(C3CC3)c2)ncn1 [I-68] | 100% | 100% | – | 100% | – | – | – | – | 100% | – | – |
| C[C@H](NC(=O)c1cc(OC(F)(F)F)cc(C(C)(C)F)c1)c1ncnn1-c1cc(C#N)ncn1 [I-142] | – | – | 100% | 100% | 100% | – | 100% | – | – | – | 100% |
| C[C@H](NC(=O)c1cc(C(F)(F)F)cc(C(F)(F)F)c1)c1ncnn1-c1cc(C(N)=O)ncn1 [I-135] | 100% | 100% | 80% | 100% | – | – | 100% | – | – | 100% | 100% |
| C[C@H](NC(=O)c1cc(Cl)cc(S(=O)(=O)C(F)F)c1)c1ncnn1-c1cc(C(N)=O)ncn1 [I-118] | – | – | 100% | 100% | 90% | – | 100% | – | – | 100% | 100% |

Source: patent US12612386B2, “Heteroaryl-triazole compounds as pesticides” (Bayer Aktiengesellschaft, priority 2020, dated 2026)
